The results in this text go back to ChEMBL document CHEMBL1135090, “Non-peptide alpha(v)beta(3) antagonists. Part 3: identification of potent RGD mimetics incorporating novel beta-amino acids as aspartic acid replacements” (Bioorg Med Chem Lett, 2002).

pIC50: −log10 of the molar value.

Data set [1] has as its target Integrin alpha-V/beta-3 (Homo sapiens, UniProt P05106+P06756). The data set can be described thus: Inhibition of high affinity radioligand binding to human alphaV-beta3 integrin. The format is protein-complex assay.
For data set [2], the target named is T1, Integrin alpha-IIb/beta-3 (Homo sapiens) (UniProt P05106+P08514). The data set can be described thus: Inhibition of ADP-stimulated alphaIIb-beta3 integrin mediated human platelet aggregation at 10 uM.
Data set [3] is described as follows: Partition coefficient (logP). The format is physicochemical. Particulars: octanol/water.
In data set [4] the target is T1, Integrin alpha-IIb/beta-3 (Homo sapiens). Description: Inhibition of ADP-stimulated alphaIIb-beta3 integrin mediated human platelet aggregation at 11 uM.
The target is the same in data set [5]. Description: Inhibition of ADP-stimulated alphaIIb-beta3 integrin mediated human platelet aggregation at 776 uM.
A short description of data set [6]: Compound was tested for plasma clearance on administered orally as aqueous solutions at 1 mpk and by iv at 0.2 mpk. The format is ADME, organism-based. As to conditions: 0.2 mg/kg.
The target of data set [7] is T1, Integrin alpha-IIb/beta-3 (Homo sapiens). The data set can be described thus: Inhibition of ADP-stimulated alphaIIb-beta3 integrin mediated human platelet aggregation at 5.7 uM.
The nature of data set [8]: Bioavailability (dose 1 mg/kg p.o. and 0.2 mg/kg i.v.). The format is ADME, organism-based. Particulars: eutheria, in vivo, po.

Chain of Integrin alpha-V/beta-3 (P05106 27-788 limits assumed): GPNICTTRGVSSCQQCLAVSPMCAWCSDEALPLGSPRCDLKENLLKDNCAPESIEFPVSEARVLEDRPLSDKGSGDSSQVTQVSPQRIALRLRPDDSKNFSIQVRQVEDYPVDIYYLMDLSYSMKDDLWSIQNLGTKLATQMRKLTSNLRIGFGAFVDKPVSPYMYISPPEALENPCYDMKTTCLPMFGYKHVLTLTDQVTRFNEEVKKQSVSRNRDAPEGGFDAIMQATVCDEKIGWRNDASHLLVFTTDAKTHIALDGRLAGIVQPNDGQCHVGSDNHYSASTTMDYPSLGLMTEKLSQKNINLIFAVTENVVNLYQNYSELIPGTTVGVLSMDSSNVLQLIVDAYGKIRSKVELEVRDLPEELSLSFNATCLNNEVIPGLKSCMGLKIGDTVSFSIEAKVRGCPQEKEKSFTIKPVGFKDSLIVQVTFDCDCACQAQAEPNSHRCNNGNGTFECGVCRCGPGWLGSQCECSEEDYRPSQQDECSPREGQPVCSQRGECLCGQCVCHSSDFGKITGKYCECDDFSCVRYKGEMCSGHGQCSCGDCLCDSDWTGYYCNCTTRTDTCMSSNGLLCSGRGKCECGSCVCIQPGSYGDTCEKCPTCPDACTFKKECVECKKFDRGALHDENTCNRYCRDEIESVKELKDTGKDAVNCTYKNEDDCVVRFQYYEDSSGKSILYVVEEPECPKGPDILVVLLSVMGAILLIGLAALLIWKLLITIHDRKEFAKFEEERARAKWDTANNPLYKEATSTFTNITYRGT
Chain of Integrin alpha-V/beta-3 (P06756 31-889 limits assumed): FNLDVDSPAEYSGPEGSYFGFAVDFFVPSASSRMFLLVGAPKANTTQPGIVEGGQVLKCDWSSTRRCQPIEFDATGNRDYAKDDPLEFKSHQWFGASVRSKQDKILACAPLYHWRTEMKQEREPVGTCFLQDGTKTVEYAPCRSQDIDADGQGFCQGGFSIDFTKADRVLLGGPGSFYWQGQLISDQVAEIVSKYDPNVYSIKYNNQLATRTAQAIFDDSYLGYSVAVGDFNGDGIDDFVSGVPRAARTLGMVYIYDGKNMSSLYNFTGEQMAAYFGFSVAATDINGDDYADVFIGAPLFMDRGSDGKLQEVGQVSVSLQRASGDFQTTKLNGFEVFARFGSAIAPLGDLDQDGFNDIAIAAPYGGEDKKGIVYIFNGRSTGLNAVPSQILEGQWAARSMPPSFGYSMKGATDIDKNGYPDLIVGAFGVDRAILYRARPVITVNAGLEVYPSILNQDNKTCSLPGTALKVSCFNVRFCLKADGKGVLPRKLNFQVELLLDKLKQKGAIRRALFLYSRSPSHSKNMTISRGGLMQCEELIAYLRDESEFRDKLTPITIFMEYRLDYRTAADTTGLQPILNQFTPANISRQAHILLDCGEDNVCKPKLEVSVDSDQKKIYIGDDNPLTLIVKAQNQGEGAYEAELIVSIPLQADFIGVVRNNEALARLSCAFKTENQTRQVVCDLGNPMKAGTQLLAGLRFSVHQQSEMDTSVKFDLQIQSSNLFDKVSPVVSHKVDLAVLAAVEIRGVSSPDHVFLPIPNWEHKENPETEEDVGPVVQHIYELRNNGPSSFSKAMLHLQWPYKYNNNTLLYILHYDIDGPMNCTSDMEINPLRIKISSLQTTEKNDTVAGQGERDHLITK
Chain of Integrin alpha-V/beta-3 (P06756 891-1048 limits assumed): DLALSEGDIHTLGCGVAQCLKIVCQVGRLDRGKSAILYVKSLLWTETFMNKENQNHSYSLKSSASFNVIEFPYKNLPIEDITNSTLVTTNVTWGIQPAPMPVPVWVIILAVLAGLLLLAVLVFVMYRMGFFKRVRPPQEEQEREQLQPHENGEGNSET

In the case of `O=C(O)C[C@H](NC(=O)CN1CC[C@H](CCc2ccc3c(n2)NCCC3)C1=O)c1ccc2ncsc2c1`, the pIC50 in data set [1] was 8.43. This molecule also showed an inhibition in data set [2] of 19%.

`O=C(O)C[C@H](NC(=O)CN1CC[C@H](CCc2ccc3c(n2)NCCC3)C1=O)c1ccc2nc(O)oc2c1` had an inhibition in data set [2] of 19%.

In data set [1], `O=C(O)C[C@H](NC(=O)CN1CC[C@H](CCc2ccc3c(n2)NCCC3)C1=O)c1ccc2c(c1)OC(F)(F)O2` had a pIC50 of 8.24. Moreover, the logP in data set [3] came out at 1.44. This molecule registered an inhibition in data set [2] of 3%.

As to `O=C(O)C[C@H](NC(=O)CN1CC[C@H](CCc2ccc3c(n2)NCCC3)C1=O)c1cccnc1`, the pIC50 in data set [1] was 9.46. Also, the inhibition in data set [4] stood at 50%.

In data set [1], `O=C(O)C[C@H](NC(=O)CN1CC[C@H](CCc2ccc3c(n2)NCCC3)C1=O)c1cccc(F)c1` showed a pIC50 of 8.74. This molecule yielded an inhibition in data set [2] of 6%.

On to `O=C(O)C[C@H](NC(=O)CN1CC[C@H](CCc2ccc3c(n2)NCCC3)C1=O)c1ccc2c(c1)OCC2`, for which, in data set [1], the pIC50 is 9.96. For the same molecule, the inhibition in data set [2] turned out to be 60%.

For the molecule `O=C(O)C[C@H](NC(=O)CN1CC[C@H](CCc2ccc3c(n2)NCCC3)C1=O)c1ccc2c(c1)CCC2`, the pIC50 in data set [1] is 7.54.

In turn, `O=C(O)CCNC(=O)CN1CC[C@H](CCc2ccc3c(n2)NCCC3)C1=O` gave a pIC50 in data set [1] of 6.64.

In data set [1], `CCOc1ccc([C@H](CC(=O)O)NC(=O)CN2CC[C@H](CCc3ccc4c(n3)NCCC4)C2=O)cc1F` showed a pIC50 of 9.51. The same molecule registered an inhibition in data set [2] of 28%.

The molecule `COc1ccc([C@H](CC(=O)O)NC(=O)CN2CC[C@H](CCc3ccc4c(n3)NCCC4)C2=O)cc1F` gave a pIC50 in data set [1] of 9.31. In addition, the inhibition in data set [2] came to 30%.

`O=C(O)C[C@H](NC(=O)CN1CC[C@H](CCc2ccc3c(n2)NCCC3)C1=O)c1ccc2ccsc2c1` had a pIC50 in data set [1] of 8.66. The inhibition in data set [2] came to 29%.

`O=C(O)C[C@H](NC(=O)CN1CC[C@H](CCc2ccc3c(n2)NCCC3)C1=O)c1ccc2[nH]c(=O)oc2c1` showed a pIC50 in data set [1] of 9.54.

As to `O=C(O)C[C@H](NC(=O)CN1CC[C@H](CCc2ccc3c(n2)NCCC3)C1=O)c1ccccc1`, the pIC50 in data set [1] is 8.40. In data set [2], the inhibition was determined as 8%.

For the molecule `O=C(O)C[C@H](NC(=O)CN1CC[C@H](CCc2ccc3c(n2)NCCC3)C1=O)c1cnc2ccccc2c1`, in data set [1], the pIC50 was 10.40. Besides, the inhibition in data set [5] turned out to be 50%.

`O=C(O)C[C@H](NC(=O)CN1CC[C@H](CCc2ccc3c(n2)NCCC3)C1=O)c1ccc(-c2ccccc2)c(F)c1` had a pIC50 in data set [1] of 9.24. This molecule showed an inhibition in data set [2] of 3%.

On to `O=C(O)C[C@H](NC(=O)CN1CC[C@H](CCc2ccc3c(n2)NCCC3)C1=O)c1ccc2c(c1)OCO2`, for which, in data set [1], the negative-log IC50 (pIC50) is 9.49. In addition, the clearance in data set [6] stood at 25 mL/min/kg. For the same molecule, the inhibition in data set [7] stood at 50%. In data set [8], this molecule registered a bioavailability of 30%. Besides, the logP in data set [3] worked out at 0.26.

Molecule `O=C(O)C[C@H](NC(=O)CN1CC[C@H](CCc2ccc3c(n2)NCCC3)C1=O)c1ccc2c(c1)CCO2` had a pIC50 in data set [1] of 8.96. The molecule also yielded an inhibition in data set [2] of 20%.
